# Measured values published in patent US4656269A, “Histidine derivatives” (Kissei Pharmaceutical Co., Ltd., priority 1986, dated 1987).
# Tests used:
# [1] = target: T1, renin in human high renin plasma (Homo sapiens, UniProt P00797); assay: Renin inhibitory effect in a human high renin plasma (angiotensin I by radioimmunoassay); type: biochemical; details: 60 minutes, 37° C., read-out: IC50 (molar concentration)
# T1 construct: 500 μl of human high renin plasma; from tissue; host or cells: human high renin plasma
# T1 sequence (P00797 67-406): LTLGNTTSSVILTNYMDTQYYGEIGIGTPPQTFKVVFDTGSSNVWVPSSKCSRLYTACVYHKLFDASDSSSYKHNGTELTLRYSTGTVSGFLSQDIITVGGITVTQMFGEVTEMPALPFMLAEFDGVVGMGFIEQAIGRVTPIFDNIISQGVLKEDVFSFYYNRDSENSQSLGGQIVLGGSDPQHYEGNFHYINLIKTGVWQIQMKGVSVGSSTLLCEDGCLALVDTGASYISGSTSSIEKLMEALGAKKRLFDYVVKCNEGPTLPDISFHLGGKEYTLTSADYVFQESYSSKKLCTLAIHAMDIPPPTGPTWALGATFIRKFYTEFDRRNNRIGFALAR
# human renin = target: T2, human renin (Homo sapiens, UniProt P00797); assay: Human renin-sheep renin substrate reaction system in vitro (angiotensin I by radioimmunoassay); type: biochemical; details: pH 7.4, 15 minutes, 37° C., read-out: IC50 (molar concentration)
# T2 sequence (P00797 67-406): T1 sequence (P00797 67-406)
# Procedure: Human renin-sheep renin substrate reaction system in vitro
# To a mixture containing 200 μl of a 125 mM pyrophosphate buffer (pH 7.4), 25 μl of a 20 mM aqueous solution of L-phenylalanyl-L-alanyl-L-prolin as an angiotensin cnverting enzyme inhibitor, 50 μl of semipurified sheep renin substrate (2000 ng angiotensin I/ml), 50 μl of dimethyl sulfoxide solution of an amino acid compound of the present invention and 150 μl of deionized water was added 25 μl of purified human renin (20-30 ng angiotensin I/ml/hr. The mixture was incubated for 15 minutes on a water bath at 37° C., and the reaction mixture was allowed to stand for 5 minutes on a water bath at 100° C. to stop the reaction. After cooling, 200 μl of the solution were taken up and the amount of angiotensin I produced by the addition of renin was determined by radiommunoassay. The inhibitory effect was calculated by the following equation.
# As a control, the same procedure as above was carried out by using 50 μl of dimethyl sulfoxide alone in place of the 50 μl of dimethyl sulfoxide solution containing an amino acid compound of the present invention.
SMILES,IC50 [1] [µM],IC50 (human renin) [µM]
COC(=O)C[C@H](O)[C@H](CC(C)C)NC(=O)[C@H](Cc1c[nH]cn1)NC(=O)C(CC(=O)N1CCOCC1)Cc1cccc2ccccc12 (stereo partly drawn) [Methyl N-[2-(1-naphthylmethyl)-3-(morpholinocarbonyl)propionyl]-L-histidylstatinate],0.15,–
CC(C)C[C@H](NC(=O)[C@H](Cc1c[nH]cn1)NC(=O)C(CC(=O)N1CCOCC1)Cc1cccc2ccccc12)[C@@H](O)CC(=O)OC(C)C (stereo partly drawn) [Isopropyl N-[2-(1-naphthylmethyl)-3-(morphlinocarbonyl)propionyl]-L-histidylstatinate],–,0.066
"COC(=O)C(O)[C@H](CC(C)C)NC(=O)[C@H](Cc1c[nH]cn1)NC(=O)C(CC(=O)N(C)C)Cc1cccc2ccccc12 (mixture of isomers) [Methyl (2RS, 3S)-3-{N-[2-(1-naphthylmethyl)-3-(dimethylcarbamoyl)propionyl]-L-histidyl}amino-2-hydroxy-5-methylhexanoate]",0.025,0.078
